Experiment [1] relates to 35S-ABF3 transgenic plants (line A319). Kind of experiment: ABA dose-response of root growth. Type of experiment: in vivo. The note with it: Arabidopsis thaliana, 120 h, root elongation 5 days after transfer, read-out: root growth, % of control rate. How it is done: (§1) FIG. 2. ABA Sensitivity of 35S-ABF3 and 35S-ABF4 Plants. (A) Growth of transgenic plants on medium containing 0.5 μM ABA. Seeds were germinated and grown for 12 days. (B) Growth of transgenic plants on medium containing 0.25 μM ABA. Seeds were germinated on the medium for 3 days and representative plants are shown. (C) ABA dose-response of germination. Seeds, 6 months old after harvest and pre-chilled at 4° C. for 4 days, were germinated on media containing various concentrations of ABA, and seedlings with fully emerged radicles were counted after 3 days. Experiments were done in triplicates (n=50 each), and the bars show standard errors. (D) ABA dose-response of root growth. Seeds were germinated for 4 days on ABA-free medium and the seedlings (n=6) were transferred to media containing various concentrations of ABA. Root elongation was measured 5 days after the transfer. The experiments were performed more than four times, sometimes using different transgenic lines, and the results were consistent. The small bars represent standard errors. Transgenic lines A319 (ABF3) and A405 (ABF4) were used.
(§2) To see the stage-specificity of ABA response, ABA dose-response was examined during and after germination. […] Likewise, root growth of the 35S-ABF transgenic lines was hypersensitive to ABA (FIG. 2D). At 0.5 μM ABA, wild type root growth was 84% of its control rate, whereas those of 35S-ABF4 and 35S-ABF3 plants were 35% and 51% of their control rates, respectively. At 1 μM ABA, root growth of the 35S-ABF4 plants reduced to 6% and the 35S-ABF3 plants to 37%. […] Wild type plants grew at 62% of the control rate at the same ABA concentration.

In experiment [2] the test system is 35S-ABF4 transgenic plants (line A405). Kind of experiment: ABA dose-response of root growth. Type of experiment: in vivo. The note with it: Arabidopsis thaliana, 120 h, root elongation 5 days after transfer, read-out: root growth, % of control rate. How it is done: as §1, §2
Experiment [3] concerns 35S-ABF transgenic plants. Kind of experiment: ABA dose-response of root growth. Type of experiment: in vivo, Arabidopsis thaliana. The note with it: ABA concentration above 5 μM. How it is done: as §1, §2
Experiment [4] deals with wild type plants (Ler). Nature of the experiment: ABA dose-response of root growth. Type of experiment: in vivo, Arabidopsis thaliana. How it is done:
as §1, §2

The subject of experiment [5] is 35S-ABF3 transgenic plants (line A319). Nature of the experiment: ABA dose-response of germination. The note with it: 0.5 μM ABA, fully emerged radicles counted after 3 days. Type of experiment: in vivo, Arabidopsis thaliana. As to the method: as §1, §2
For experiment [6], the system named is 35S-ABF4 transgenic plants (line A405). Kind of experiment: ABA dose-response of germination. Type of experiment: in vivo, Arabidopsis thaliana. The note with it: 0.5 μM ABA, fully emerged radicles counted after 3 days. As to the method:
as §1, §2

The subject of experiment [7] is wild type plants (Ler). Nature of the experiment: ABA dose-response of germination. Type of experiment: in vivo, Arabidopsis thaliana. The note with it: 0.5 μM ABA, fully emerged radicles counted after 3 days. How it is done: as §1, §2
The subject of experiment [8] is wild type plants. Kind of experiment: Germination and growth on ABA-containing medium. In kind it is in vivo, Arabidopsis thaliana. The note with it: ABA 0.5 μM or above. How it is done:
as §1
(§3) To test whether ABF3 or ABF4 overexpression affected ABA sensitivity, 35S-ABF3 and 35S-ABF4 transgenic plants were germinated and grown on media containing various concentrations of ABA. […]

Experiment [9] relates to 35S-ABF plants. Kind of experiment: Germination and growth on ABA-containing medium. In kind it is in vivo, Arabidopsis thaliana. The note with it: ABA 0.5 μM or above. As to the method: as §1, §3
Experiment [10] has as its system 35S-ABF and wild type plants. Kind of experiment: Effect of ACC and IAA on growth of 35S-ABF versus wild type plants. The note with it: in vivo. More on the design: species or system Arabidopsis thaliana. From the text: According to the studies, ABA-mediated inhibition of germination is negatively regulated by ethylene, whereas ethylene signaling components are required for the ABA inhibition of root growth (Beaudoin et al., 2000; Ghassemian et al., 2000). […] When exposed to progressive drought, new lateral roots take a short and tuberized form. The process, known as ‘drought rhizogenesis’, is impaired not only in the ABA deficient aba-1 and ABA-insensitive abi1-1 mutants but also in the auxin resistant axr1-3 mutant. To test whether the overexpression of ABF3 or ABF4 affected ethylene or auxin sensitivity, we compared the effects of the ethylene precursor 1-aminocyclopropane-1-carboxylic acid (ACC) and indole-3-acetic acid (IAA) on the growth of 35S-ABF and wild type plants. […] However, leaves of 35S-ABF4 plants have a tendency to have epinastic curvature when grown on plates (FIG. 4A), which is generally attributed to ethylene action under stress conditions (Jackson, 1997). […] Thus, the result implies that auxin signaling pathway(s) might have been perturbed in 35S-ABF4 plants.

The test system of experiment [11] is 35S-ABF plants. Kind of experiment: Salt effect on germination and newly germinated seedling growth. Type of experiment: in vivo, Arabidopsis thaliana. As to the method: (§4) FIG. 3. […] (A) Salt effect on germination. Seeds of Ler, aba1-1, abi1-1, abi2-1, 35S-ABF3 (line A319) and 35S-ABF4 (line A405) were plated after 4 days of cold treatment on media containing 50, 100, or 150 mM NaCl, and germination (fully open cotyledons) was scored after 4 days. Experiments were done in triplicates (n=50 each), and standard errors are smaller than the symbols. (B) Salt effect on newly germinated seedling growth. Seeds of the same transgenic lines were germinated for 4 days on media containing 100 mM of NaCl, KCl or mannitol, and representative seedlings are shown. (C) Glucose response of 35S-ABF transgenic plants. Seeds were germinated and grown for 14 days on the regular growth medium or the same medium supplemented with 3% glucose or mannitol at vertical position. A319, A333, A405, and A406 indicate transgenic lines.
(§5) High concentrations of salts inhibit the germination of Arabidopsis (Werner and Finkelstein, 1995; Leon-Kloosterziel et al., 1996; Quesada et al., 2000; Zhu, 2000). […] To test this, 35S-ABF transgenic plants were germinated on media containing various concentrations of NaCl.
(§6) Plants were grown at 22° C. under long day condition (16 hr light/8 hr dark cycle) aseptically or on soil. […]

In experiment [12] the test system is wild type plants. The note with it: NaCl below 100 mM; wild type (also aba1, abi1, abi2 mutants). How it is done: as §4, §5, §6
Another experiment has as its system 35S-ABF transgenic lines. Nature of the experiment: Glucose response of seedlings. In kind it is in vivo, Arabidopsis thaliana. The note with it: 3% mannitol; both wild type and 35S-ABF transgenic plants. How it is done: as §4
Plants were grown at 22° C. under long day condition (16 hr light/8 hr dark cycle) aseptically or on soil. For soil growth, seeds were sown on 1:1:1 mixture of vermiculite, perlite and peat moss irrigated with 0.1% Hyponex, placed at 4° C. for 4 days in the dark to break residual dormancy, and transferred to normal growth conditions. Unless otherwise stated, the plants were watered once a week. […]

The values that follow come from patent US20050244971A1, “Transgenic plants with enhanced stress tolerance” (KOREA KUMHO PETROCHEMICAL CO., LTD., priority 2002, published 2005).

In the case of `CC1=CC(=O)CC(C)(C)[C@@]1(O)/C=C/C(C)=C\C(=O)O` [ABA, abscisic acid], the activity at 0.5 µM in experiment [1] (0.5 μM ABA) is 51%; in experiment [2] (0.5 μM ABA), 35%; in the experiment with wild type plants (Ler) [4] (Arabidopsis thaliana, 120 h, 0.5 μM ABA, root elongation 5 days after transfer, read-out: root growth, % of control rate) it was 84%. The activity at 1 µM in experiment [1] (1 μM ABA) was 37%; in experiment [2] (1 μM ABA), 6%; in the experiment with wild type plants (Ler) [4] (Arabidopsis thaliana, 120 h, 1 μM ABA, root elongation 5 days after transfer, read-out: root growth, % of control rate), 62%. For the same compound, the root growth entry in [3] is “almost completely arrested”; in the experiment with wild type plants (Ler) [4] (ABA concentration above 5 μM) it was “still continued to grow”. The germination efficiency is 8% in experiment [5] and 28% in experiment [6]. Besides, the germination in the experiment with wild type plants (Ler) [7] came out at 80%. Besides, the “growth after radicle emergence” value was “continued to grow and develop” with wild type plants [8]; “completely arrested” in the experiment on 35S-ABF plants [9].

`NC1(C(=O)O)CC1` [ACC, 1-aminocyclopropane-1-carboxylic acid]: the “difference in growth response between 35S-ABF and wild type plants” value in experiment [10] was “did not see any differences”.

Consider `O=C(O)Cc1c[nH]c2ccccc12` [IAA, indole-3-acetic acid], for which the “difference in growth response between 35S-ABF and wild type plants” value in experiment [10] was “did not see any differences”.

Take `[Cl-].[Na+]` [NaCl]: the germination and growth entry in the experiment on 35S-ABF plants [11] (100 mM NaCl) was “significantly affected”. For the same compound, the germination result in the experiment with wild type plants [12] is listed as “not affected”.

As for `OC[C@@H](O)[C@@H](O)[C@H](O)[C@H](O)CO` [mannitol], in the experiment with 35S-ABF plants [11] (mannitol, same or twice the concentration (100 mM)), the “response of germination/seedling growth” value is on record as “normal”. For the same compound, in the experiment on 35S-ABF transgenic lines, the growth inhibition entry is on record as “significantly but similarly”.
